We go through 16 compounds from PMC12735739, “Bromo Analogues of Active 3,4,5,4′-Tetramethoxy-trans-stilbene (DMU-212)—A New Path of Research to Anticancer Agents” (Molecules, 2025).

Broadly, the pIC50 is −log10 of the IC50, conventionally taken in molar units.

The test system of series [1] is ovarian cancer 2D culture. Set-up: method as in PMID 27585955. The settings on record: 2D culture and liposomal drug delivery system; cited from earlier work.
Another series has as its system SK-OV-3 (3D model). On the set-up: method as in PMID 27585955. The note with it: 3D spheroid model; cited from earlier work.
Series [2] has as its system patient P3 cell lines (3D model, patient-derived ovarian cancer). Set-up: method as in PMID 27585955. The note with it: 3D spheroid model; cited from earlier work.
Series [3] deals with Jurkat human acute T-cell leukaemia. The experiment in a line: MTT cell viability assay, Jurkat. In kind it is cell-based. The settings on record: MTT test, 72 h of action, read-out: IC50, Tumour Cell Lines, Jurkat Human Acute T-Cell Leukaemia. The protocol: (§1) The MTT cell viability assay was performed according to a previously reported protocol. Briefly, adherent cells were seeded at a density of 5000 cells per 100 µL, and suspension cells at 25,000 cells per 100 µL, in 96-well plates and incubated overnight. Subsequently, test compounds were added in 100 µL of culture medium, followed by incubation for 72 h. After treatment, 20 µL of MTT solution (5 mg/mL, Sigma-Aldrich, Burlington, MA, USA) was added to each well. The resulting formazan crystals were dissolved in DMSO (Sigma-Aldrich, Burlington, MA, USA), and absorbance was recorded using a BioTek ELx800 Absorbance Reader (BioTek Instruments, Inc., Vinooski, VT, USA). IC50 values were calculated by nonlinear regression analysis using GraphPad Prism (version 9.1.1, GraphPad Software, Boston, MA, USA). Experiments were conducted in triplicate. Human leukemia Jurkat T-cells, human glioblastoma U251 cells were kindly provided by Collection at the Institute of Molecular Biology and Genetics, National Academy of Sciences of Ukraine (Kyiv, Ukraine). Murine macrophages of J774.2 line were a generous gift from Prof. Sir John Vane (William Harvey Research Institute, London, UK) provided via Prof. Janusz Marcinkiewicz (Jagiellonian University Medical College, Krakow, Poland). Human colorectal adenocarcinoma cell line HT-29 was kindly provided by Prof. Anna Bielawska (Department of Biotechnology, Faculty of Pharmacy, Medical University of Bialystok, Poland). Murine BALB/3T3 fibroblasts was obtained from the Cell Collection of the R.E. Kavetsky Institute of Experimental Pathology, Oncology and Radiobiology (Kyiv, Ukraine).
On the technique in general: Formazan colour is commonly taken as a measure of viable cells.

Series [4] deals with U251 human malignant glioblastoma. The experiment in a line: MTT cell viability assay, U251. In kind it is cell-based. The note with it: U-251, MTT test, 72 h of action, read-out: IC50, Tumour Cell Lines, U251 Human Malignant Glioblastoma. The protocol:
as §1

The subject of series [5] is HT-29 human colorectal carcinoma. As to the kind of experiment: MTT cell viability assay, HT-29. The class given is cell-based. The settings on record: MTT test, 72 h of action, read-out: IC50, Tumour Cell Lines, HT-29 Human Colorectal Carcinoma. The protocol:
as §1

For another series, the system named is Balb-3T3 mice fibroblast. The experiment in a line: MTT cell viability assay, Balb-3T3. In kind it is cell-based. The note with it: Mus musculus, MTT test, 72 h of action, read-out: IC50, Pseudo-Normal Cell Lines, Balb-3T3 Mice Fibroblast. As to the method: as §1
Series [6] concerns J744.2 mice macrophage-like cells. As to the kind of experiment: MTT cell viability assay, J744.2. In kind it is cell-based. The settings on record: Mus musculus; MTT test, 72 h of action; read-out: IC50, Pseudo-Normal Cell Lines, J744.2 Mice Macrophage-Like Cells. As to the method:
as §1

The test system of the next series is Mucor indicus. Set-up: method as in PMID 30790326. The settings on record: cited from earlier work.
The test system of series [7] is human lung cancer cells (A549). On the set-up: method as in PMID 15464834, doi:10.1177/1934578X0700200419. The settings on record: read-out: IC50 in cultured human lung cancer cells (A549); cited from earlier work.
The test system of a further series is salmon sperm DNA. As to the kind of experiment: DNA intercalation assay (methyl green displacement method). In kind it is binding. The settings on record: 1 and 10 μM; for percentage of methyl green dye replaced from its complex with DNA: range over both doses; for affinity for DNA: methyl green displacement, in words. As to the method: To investigate the potential mechanisms of cell death induced by the studied derivative, we evaluated apoptosis using the fluorescence microscopy of cells stained with Hoechst-33342 and Ethidium Bromide (EtBr), as well as spectroscopic and DNA/methyl green displacement assays. Methyl green is a cationic dye that binds preferentially to the phosphate backbone of DNA (primarily in the major groove). If a compound (an intercalator or groove-binding agent) is added, it can compete with methyl green for binding to DNA. The higher the percentage of substituted methyl green, the stronger the compound interacts with DNA. Intercalation is the key feature of clinically used antitumor drugs, e.g., doxorubicin (DOX). DOX displaced 41.62–45.52% of methyl green from its complex with DNA (Figure 10). Another intercalator, EtBr, replaced 42.12–47.35% of methyl green from its complex with DNA.
A 485 μL aliquot of salmon sperm DNA (50 μg/mL, Sigma-Aldrich, Burlington, MA, USA) was incubated with 15 μL of methyl green solution (1 mg/mL, Sigma-Aldrich, Burlington, MA, USA) at 37 °C for 1 h. Subsequently, 500 μL of the test compounds, doxorubicin, or ethidium bromide (each at final concentrations of 1 μM and 10 μM) was added to the preformed methyl green–DNA complex. The samples were further incubated at 37 °C for 2 h in the dark. Absorbance was then recorded at 630 nm. GraphPad Prism (version 9.1.1, GraphPad Software, Boston, MA, USA) was used for the results analysis. Experiments were conducted in triplicate. Doxorubicin and ethidium bromide were purchased from Sigma-Aldrich, USA.

The next series relates to Jurkat cells. As to the kind of experiment: Fluorescent microscopy of Jurkat cells (Hoechst 33342/EtBr staining). The class given is cell-based, human. The note with it: 0.5 µM, 24 h. The protocol: Jurkat cells were seeded in 24-well plates at a density of 250,000 cells/mL and incubated overnight prior to treatment. Cells were then treated for 24 h with compounds 4, 7, and 8 (0.5 µM) or doxorubicin (0.5 µM) as a positive control. Following treatment, cells were stained with Hoechst 33342 (0.2–0.5 µg/mL; Sigma-Aldrich, USA) and ethidium bromide (EtBr, 1 µg/mL). Fluorescence imaging was performed using a LIM-400 microscope (LABEX INSTRUMENT LIMITED, Ningbo, China) equipped with an MTR3CCD camera. Images were captured and analysed using ImageView software (version 4.11.21522.20221011).

Series [8] concerns Staphylococcus aureus 209P. On the set-up: method as in PMID 37298957. The note with it: in words; cited from earlier work.
The subject of a further series is P450 CYP1B1 isoform. Set-up: method as in PMID 28632937. The note with it: read-out: IC50 against the P450 CYP1B1 isoform; cited from earlier work.
Series [9] relates to HeLa, MDA-MB-231, and MCF-7. Set-up: method as in PMID 32171988. The note with it: in words; cited from earlier work.
The test system of the next series is cervical cancer HeLa. On the set-up: method as in PMID 28669347. The settings on record: cited from earlier work.
A further series concerns glioblastoma U87. On the set-up: method as in PMID 28669347. The note with it: cited from earlier work.

pIC50: −log10 of the molar value. In brackets after ≈: the same amount, converted by molar mass.

For “3-hydroxy-3,4,5,4′-tetramethoxy-trans-stilbene [DMU-214]”, the pIC50 is 7.66 in series [1], 4.85 to 5.54 with SK-OV-3 (3D model) and 4.64 to 6.30 in series [2].

For the compound `COc1cc(/C=C/c2ccc(Br)cc2)cc(OC)c1OC` [Compound 1, 4-bromo-3′,4′,5′-trimethoxy-trans-stilbene], the pIC50 is 5.65 in series [3]; less than 4.00 in series [4]; less than 4.00 in series [5]; 5.49 in the series on Balb-3T3 mice fibroblast; 5.18 in series [6]; 5.20 in series [7]. Moreover, the “MIC toward Mucor indicus” value with Mucor indicus was 25 µg/mL (≈ 71.6 µM).

For `COc1cc(/C=C/c2cc(OC)c(OC)c(OC)c2)cc(Br)c1OC` [Compound 2, 3-bromo-3′,4′,5′,4,5-pentamethoxy-trans-stilbene], the pIC50 in [3] is less than 4.00; in series [4], less than 4.00; in series [5], less than 4.00; in the series with Balb-3T3 mice fibroblast, 4.14; in [6], 5.10.

As to `COc1cc(/C=C/c2cc(Br)c(OC)c(Br)c2)cc(OC)c1OC` [Compound 3, 3,5-dibromo-3′,4′,5′,4-tetramethoxy-trans-stilbene], the negative logarithm of the IC50 (pIC50) in series [3] is less than 4.00; in series [4], less than 4.00; in [5], less than 4.00; in the series on Balb-3T3 mice fibroblast it was 4.12; in series [6], 4.69.

Consider `COc1cc(Br)c(/C=C/c2cc(OC)c(OC)c(OC)c2)cc1OC` [Compound 5, 2-bromo-3′,4′,5′,4,5-pentamethoxy-trans-stilbene], for which the pIC50 in series [3] is 4.16; in series [4] it was less than 4.00; in series [5], less than 4.00; in the series with Balb-3T3 mice fibroblast it was 4.29; in series [6], 4.15.

Turning to `COc1cc(/C=C/c2cc(Br)cc(Br)c2)cc(OC)c1OC` [Compound 6, 3,5-dibromo-3′,4′,5′-trimethoxy-trans-stilbene], the pIC50 was 4.18 in series [3]; less than 4.00 in series [4]; less than 4.00 in series [5]; 5.43 in the series on Balb-3T3 mice fibroblast; 5.00 in series [6].

On to `COc1ccc(/C=C/c2cc(OC)c(OC)c(OC)c2)cc1` [Compound 7, 3,4,5,4′-tetramethoxy-trans-stilbene], for which the negative logarithm of the IC50 (pIC50) is 6.19 in series [3]; less than 4.00 in series [4]; less than 4.00 in [5]; 5.55 with Balb-3T3 mice fibroblast; 6.08 in series [6]. In addition, the “percentage of methyl green dye replaced from its complex with DNA” value (shortened to “percentage of methyl green dye replaced”) in the series on salmon sperm DNA is 1.87–5.98%. Moreover, the “affinity for DNA” value with salmon sperm DNA is “low affinity for DNA”. Also, in the series with Jurkat cells, the “effect on cell morphology and viability (apoptosis, chromatin condensation, DNA fragmentation)” value (from here on “effect on cell morphology and viability”) is “markedly reduced viable cell numbers and enhanced nuclear fragmentation”.

Turning to `COc1ccc(/C=C/c2cc(OC)c(OC)c(OC)c2)cc1OC` [Compound 8, 3,3′,4,4’,5-pentamethoxy-trans-stilbene], the pIC50 in series [3] was 6.09; in [4], less than 4.00; in series [5], less than 4.00; with Balb-3T3 mice fibroblast, 5.30; in series [6], 5.42. In addition, the “percentage of methyl green dye replaced” value in the series on salmon sperm DNA was 1.87–5.98%. Moreover, the “affinity for DNA” value in the series on salmon sperm DNA was “low affinity for DNA”. Moreover, the “effect on cell morphology and viability” value in the series on Jurkat cells is “induced moderate apoptosis”.

Take `COc1cc(OC)c(OC)cc1/C=C/c1ccc(OC)c(OC)c1` [Compound 10, 2,3’,4,4’,5-pentamethoxy-trans-stilbene]: the pIC50 is 5.05 in series [3]; less than 4.00 in series [4]; less than 4.00 in [5]; less than 4.00 with Balb-3T3 mice fibroblast; 4.04 in [6].

As to `COc1cccc2c1C(=O)c1c(O)c3c(c(O)c1C2=O)C[C@@](O)(C(=O)CO)C[C@@H]3O[C@H]1C[C@H](N)[C@H](O)[C@H](C)O1` [DOX, doxorubicin, reference compound], the “percentage of methyl green dye replaced” value in the series on salmon sperm DNA is given as 41.62–45.52%. The “effect on cell morphology and viability” value in the series with Jurkat cells was “elicited a similar morphological disruption and chromatin fragmentation as compound 8 did”.

Consider `CC[n+]1c(-c2ccccc2)c2cc(N)ccc2c2ccc(N)cc21` [EtBr, Ethidium Bromide, reference compound], for which, in the series with salmon sperm DNA, the “percentage of methyl green dye replaced” value is listed as 42.12–47.35%.

On to `Oc1ccccc1/C=C/c1cc[n+](Cc2ccccc2Br)cc1.[Br-]` [IX, 1-(2-bromobenzyl)-4-[(E)-2-(2-hydroxyphenyl)ethenyl]pyridinium bromide], for which the “activity against Staphylococcus aureus 209P” value in series [8] is recorded as “promising activity”.

For `CSc1ccc(/C=C/c2ccccc2SC)cc1` [VI, 2,4′-dimethylthio-trans-stilbene], in the series on P450 CYP1B1 isoform, the pIC50 was 7.59.

With `CCCCCCCCCCCCCCCC[N+](C)(CCCCCCCCCCCCCCCC)CNC(=O)c1cc(OC)c(OC)c(OC)c1/C=C/c1cc(OC)c(OC)c(OC)c1` [VII, quaternary amine derivative chloride of 4,5,6,3′,4′,5′-hexamethoxy-trans-stilbene], in [9], the “antitumor activity against cancer lines compared with resveratrol and tamoxifen” value is given as “higher antitumor activity”.

For the compound `COc1ccc(/C=C/c2ccc([N+](=O)[O-])cc2[N+](=O)[O-])c(O)c1` [VIII, 2-hydroxy-4-methoxy-2′,4′-ditro-trans-stilbene], the negative logarithm of the IC50 (pIC50) is 5.16 with cervical cancer HeLa and 4.25 in the series with glioblastoma U87.

For the compound `COc1ccc(/C=C(\C#N)c2cc(OC)c(OC)c(OC)c2)cc1OC` [Z isomer of compound XII, reference compound], the pIC50 in [7] is 7.52.
